Laboratory results reported in patent publication US9271978B2 (Zenith Epigenetics Corp., priority 2012, dated 2016).

How the values were obtained:
[1] = target: T1, Brd4 bromodomain 1 (BRD4(1)) (Homo sapiens, UniProt O60885); assay: Inhibition of tetra-acetylated histone H4 binding to Brd4 bromodomain 1 (TR-FRET); design: key: Active: Compounds with an IC50 value less than 30 μM were deemed to be active.; Not Active: Compounds with an IC50 value less than 30 μM were deemed to be active; conditions: tetra-acetylated histone H4 peptide, active = IC50 <30 μM
T1 construct: Illustrative results with the first bromodomain of Brd4; made in house; host or cells: E. coli BL21 (DE3)
Summary of the method: (§1)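 IC50 values come from dose-response curves of the 665 nm to 620 nm TR-FRET signal decrease, measured after 2 h at room temperature. Reactions contained 200 nM E. coli-expressed His-tagged bromodomain, 25-50 nM biotinylated tetra-acetylated H4 peptide, Eu-streptavidin plus XL665 anti-His antibody, with 30 mM HEPES pH 7.4, 320 mM KF and 0.2% DMSO.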

hIL-6 mRNA = assay: Inhibition of hIL-6 mRNA transcription in U937 cells; type: cell-based, human; design: key: Active: Compounds with an IC50 value less than 30 μM were deemed to be active.; Not Active: Compounds with an IC50 value less than 30 μM were deemed to be active; conditions: LPS stimulation, active = IC50 <30 μM
Summary of the method: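 Readout is one-step real-time PCR of hIL-6 mRNA, normalized to an internal control and given as fold induction versus control. Cells: PMA (60 ng/mL, 3 days)-differentiated U937 macrophages, compound added 1 h before 1 ug/mL LPS, harvested after 3 h at 37° C.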

ApoA-I mRNA = assay: Up-regulation of hApoA-1 mRNA transcription in Huh7 cells; type: cell-based, human; design: key: Active: Compounds with an EC170 value less than 30 μM were deemed to be active; conditions: 48 h treatment, ApoA-I mRNA by real-time PCR, Active = EC170 less than 30 μM
Procedure: In this example, ApoA-I mRNA in tissue culture cells was quantitated to measure the transcriptional up-regulation of ApoA-I when treated with a compound of the present disclosure.
Huh7 cells (2.5×10^5 per well) were plated in a 96-well plate using 100 μL DMEM per well, (Gibco DMEM supplemented with penicillin/streptomycin and 10% FBS), 24 h before the addition of the compound of interest. After 48 h treatment, the spent media was removed from the Huh-7 cells and placed on ice (for immediate use) or at −80° C. (for future use) with the “LDH cytotoxicity assay Kit II” from Abcam. The cells remaining in the plate were rinsed with 100 μL PBS.
Then 85 μL of cell lysis solution was added to each well and incubated for 5-10 min at room temperature, to allow for complete cell lysis and detachment. mRNA was then prepared using the “mRNA Catcher PLUS plate” from Life Technologies, according to the protocol supplied. After the last wash, as much wash buffer as possible was aspirated without allowing the wells to dry. Elution Buffer (E3, 80 μL) was then added to each well. mRNA was then eluted by incubating the mRNA Catcher PLUS plate with Elution Buffer for 5 min at 68° C., and then 1 min at 4° C. Catcher plates with mRNA eluted were kept on ice for use or stored at −80° C.
The eluted mRNA isolated was then used in a one-step real-time PCR reaction, using components of the Ultra Sense Kit together with Life Technologies primer-probe mixes. Real-time PCR data was analyzed, using the Ct values, to determine the fold induction of each unknown sample, relative to the control (that is, relative to the control for each independent DMSO concentration).
Compounds with an EC170 value less than 30 μM were deemed to be active.

[2] = target: T2, second bromodomain of Brd2 (BRD2(2)) (Homo sapiens, UniProt P25440); assay: Inhibition of tetra-acetylated histone H4 binding to Brd2 bromodomain 2 (TR-FRET); design: key: Active: Compounds with an IC50 value less than 30 μM were deemed to be active.; Not Active: Compounds with an IC50 value less than 30 μM were deemed to be active; conditions: tetra-acetylated histone H4 peptide, active = IC50 <30 μM
T2 construct: made in house; host or cells: E. coli BL21 (DE3)
Summary of the method: as §1

[3] = system: human AML MV-4-11 (CRL-9591) cells; assay: Inhibition of cell proliferation in MV4-11 cells; type: cell-based; design: key: Active: Compounds with an IC50 value less than 30 μM were deemed to be active.; Not Active: Compounds with an IC50 value less than 30 μM were deemed to be active; conditions: human AML MV-4-11 cells, 72 h; active = IC50 <30 μM
Summary of the method: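 IC50 values come from blank-corrected proliferation relative to DMSO controls, read as 490 nm absorbance 3–4 h after CellTiter Aqueous One addition. Before that, cells seeded at 5×10^4/well were exposed for 72 h (37° C, 5% CO2) to triplicate two-fold compound dilutions spanning 30–0.2 μM.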

c-myc = assay: Inhibition of c-myc expression in MV4-11 cells (mRNA, real-time PCR); type: cell-based; design: key: Active: Compounds with an IC50 value less than 30 μM were deemed to be active.; Not Active: Compounds with an IC50 value less than 30 μM were deemed to be active; conditions: Human AML MV4-11 cells, 3 h incubation
Summary of the method: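 Duplex RT-qPCR of c-myc against cyclophilin cDNA gave IC50 from a dose–response curve. Input was isolated mRNA from 2.5×10^4 MV4-11 cells after 3 h exposure at 37 °C to compound or 0.1% DMSO vehicle.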

T2 sequence (P25440 344-453 limits assumed): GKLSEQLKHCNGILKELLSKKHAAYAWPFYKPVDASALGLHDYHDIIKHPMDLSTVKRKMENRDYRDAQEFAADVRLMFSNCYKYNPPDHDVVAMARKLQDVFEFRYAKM

| SMILES | FRET activity (IC50 <30 μM) BRD4(1) [1] | IL-6 activity (IC50 <30 μM) (hIL-6 mRNA) | ApoA-1 activity (EC170 <30 μM) (ApoA-I mRNA) | FRET activity (IC50 <30 μM) BRD2(2) [2] | Cell Proliferation activity (IC50 <30 μM) [3] | c-myc activity (IC50 <30 μM) (c-myc) |
| --- | --- | --- | --- | --- | --- | --- |
| Cc1noc(CO)c1-c1ccc(=O)n(Cc2ccccc2)c1 [Example 214, 1-benzyl-5-(5-(hydroxymethyl)-3-methylisoxazol-4-yl)pyridin-2(1H)-one] | Active | Active | Active |  |  |  |
| Cc1onc(CO)c1-c1ccc(=O)n(Cc2ccccc2)c1 [Example 158, 1-Benzyl-5-(3-(hydroxymethyl)-5-methylisoxazol-4-yl)pyridin-2(1H)-one] | Active |  | Active |  |  |  |
| Cc1noc(C)c1-c1ccc(=O)n(C(C)c2ccccn2)c1 (stereo not shown) [Example 112, 5-(3,5-Dimethylisoxazol-4-yl)-1-(1-(pyridin-2-yl)ethyl)pyridin-2(1H)-one] | Active | Not Active | Active | Active |  |  |
| Cc1noc(C)c1Nc1cc(-c2c(C)noc2C)cn(Cc2ccccc2)c1=O [Example 217, 1-benzyl-5-(3,5-dimethylisoxazol-4-yl)-3-((3,5-dimethylisoxazol-4-yl)amino)pyridin-2(1H)-one] | Active | Not Active | Active |  |  |  |
| Cc1nscc1-c1ccc(=O)n(Cc2ccccc2)c1 [Example 160, 1-Benzyl-5-(3-methylisothiazol-4-yl)pyridin-2(1H)-one] | Active |  | Active |  |  |  |
| Cc1noc(C)c1-c1ccc(=O)n(Cc2ccc(Cl)c(Cl)c2)c1 [Example 155, 1-(3,4-Dichlorobenzyl)-5-(3,5-dimethylisoxazol-4-yl)pyridin-2(1H)-one] | Active |  | Active |  |  |  |
| Cc1noc(C)c1-c1cc(Nc2cccc(F)c2)c(=O)n(Cc2ccccc2)c1 [Example 157, 1-Benzyl-5-(3,5-dimethylisoxazol-4-yl)-3-((3-fluorophenyl)amino)pyridin-2(1H)-one] | Active |  | Active |  |  |  |
| COc1cc(-c2ccc(=O)n(Cc3cccc(C#N)c3)n2)cc(OC)c1OC [Example 15, 3-((6-Oxo-3-(3,4,5-trimethoxyphenyl)pyridazin-1(6H)-yl)methyl)benzonitrile] | Active | Active |  | Active | Not Active | Not Active |
| Cc1noc(C)c1-c1ccc(=O)n(Cc2ccccc2Cl)c1 [Example 127, 1-(2-Chlorobenzyl)-5-(3,5-dimethylisoxazol-4-yl)pyridin-2(1H)-one] | Active | Active |  | Active | Active | Active |
| COc1cc(-c2ccc(=O)n(Cc3ccc(C(C)(C)C)cc3)n2)cc(OC)c1OC [Example 120, 2-(4-(tert-Butyl)benzyl)-6-(3,4,5-trimethoxyphenyl)pyridazin-3(2H)-one] | Active | Not Active |  | Active | Active | Not Active |
| Cc1noc(C)c1-c1ccc(=O)n(C(C)c2ccccc2C(F)(F)F)n1 (stereo not shown) [Example 34, 6-(3,5-Dimethylisoxazol-4-yl)-2-(1-(2-(trifluoromethyl)phenyl)ethyl)pyridazin-3(2H)-one] | Active | Active |  | Active | Active | Active |
| Cc1noc(C)c1-c1ccc(=O)n(Cc2ccc(Cl)cc2Cl)c1 [Example 136, 1-(2,4-Dichlorobenzyl)-5-(3,5-dimethylisoxazol-4-yl)pyridin-2(1H)-one] | Active | Active |  | Active | Active | Active |
| Cc1ccc(Cn2nc(-c3c(C)noc3C)ccc2=O)cc1 [Example 29, 6-(3,5-Dimethylisoxazol-4-yl)-2-(4-methylbenzyl)pyridazin-3(2H)-one] | Active | Active |  | Active | Active | Active |
| Cc1noc(C)c1-c1cc(-c2ccc(F)cc2)c(=O)n(Cc2ccccc2)c1 [Example 70, 1-Benzyl-5-(3,5-dimethylisoxazol-4-yl)-3-(4-fluorophenyl)pyridin-2(1H)-one] | Active | Active |  | Active | Active | Active |
| Cc1noc(C)c1-c1ccc(=O)n(C(C)c2cccc(Cl)c2)c1 (stereo not shown) [Example 113, 1-(1-(3-Chlorophenyl)ethyl)-5-(3,5-dimethylisoxazol-4-yl)pyridin-2(1H)-one] | Active | Active |  | Active | Active | Active |
| Cc1noc(C)c1-c1cc(C)c(=O)n(Cc2ccccc2F)n1 [Example 84, 6-(3,5-Dimethylisoxazol-4-yl)-2-(2-fluorobenzyl)-4-methylpyridazin-3(2H)-one] | Active | Active |  | Active | Not Active | Not Active |
| Cc1noc(C)c1-c1ccc(=O)n(Cc2cc(F)c(F)c(F)c2)c1 [Example 142, 5-(3,5-Dimethylisoxazol-4-yl)-1-(3,4,5-trifluorobenzyl)pyridin-2(1H)-one] | Active | Active |  | Active | Active | Active |
| C=Cc1ccc(Cn2cc(-c3c(C)noc3C)ccc2=O)cc1 [Example 218, 5-(3,5-Dimethylisoxazol-4-yl)-1-(4-vinylbenzyl)pyridin-2(1H)-one] | Active | Active | Active |  |  |  |
| Cc1noc(C)c1-c1ccc(=O)n(Cc2cccc(F)c2)c1 [Example 42, 5-(3,5-Dimethylisoxazol-4-yl)-1-(3-fluorobenzyl)pyridin-2(1H)-one] | Active | Active |  | Active | Active | Active |
